Counter-ions that a name gives are not always drawn.
System: MMP-13
Test: MMP-13 Production Inhibition Test
Type: cell-based, human
Settings: Homo sapiens; 30 μmol/L; SW1353 cells stimulated with IL-1β 10 ng/mL; MMP-13 in culture supernatant by ELISA 16 hours after stimulation; read-out: Inhibition rate (%) at 30 μmol/L
Description: MMP-13 Production Inhibition Test
6.8×10^3 human cartilage derived cell line SW1353 cells were suspended in 100 μL of Dulbecco modified Eagle's medium supplemented with 10% fetal calf serum, plated on 96-well plates and cultured for 3 days. After the culture medium was changed to Dulbecco modified Eagle's medium containing 0.2% lactalbumin hydrolysate and the cells were cultured for 6 hours, […] were added and then IL-1β was added to obtain the final concentration of 10 ng/mL 1 hour later. 16 hours after the stimulation, supernatant was collected and the amount of MMP-13 in the culture supernatant was determined with an ELISA kit (Amersham). The inhibition rate was calculated from the amount of MMP-13 in the presence of a test compound assuming that the amount of MMP-13 was 100% in the absence of the test compound.

With `O=C(Nc1cc(-c2ccccc2)ccc1C(=O)O)c1ccc(F)c(F)c1` [Example 450, 2-(3,4-Difluorobenzamido)-4-phenylbenzoic acid] as the molecule, how does the inhibition at 30 µM read?
The inhibition at 30 µM was 98%.

With `O=C(Nc1cc(Oc2ccccc2)ccc1C(=O)O)c1ccc(-n2cccc2)cc1` [Example 495, 4-phenoxy-2-(4-(1H-pyrrol-1-yl)benzamido)benzoic acid] as the molecule, how does the inhibition at 30 µM read?
The inhibition at 30 µM was 99%.

How did the inhibition at 30 µM turn out when `O=C(Nc1cc(Oc2ccc(C(F)(F)F)cc2)ccc1C(=O)O)c1ccccc1` [Example 570, 2-(Benzamido)-4-(4-(trifluoromethyl)phenoxy)benzoic acid] was run?
The inhibition at 30 µM was 98%.

How did the inhibition at 30 µM turn out when `O=C(Nc1cc(-c2ccc(O)cc2)ccc1C(=O)O)c1ccccc1` [Example 243, 2-(benzamido)-4-(4-hydroxyphenyl)benzoic acid] was run?
The inhibition at 30 µM was 96%.

How did the inhibition at 30 µM turn out when `O=C(Nc1cc(-c2cccc(Cl)c2)ccc1C(=O)O)c1ccccc1` [Example 222, 2-(benzamido)-4-(3-chlorophenyl)benzoic acid] was run?
The inhibition at 30 µM was 98%.

`O=C(Nc1cc(Oc2ccccc2)ccc1C(=O)O)c1ccc2occc2c1` [Example 96, 2-(Benzofuran-5-carboxamido)-4-phenoxybenzoic acid] was tested. Which inhibition at 30 µM did it give?
The inhibition at 30 µM was 96%.

Which inhibition at 30 µM does the source give for `O=C(Nc1cc(Oc2ccccc2)ccc1C(=O)O)c1ccc(Cl)c(Cl)c1` [Example 442, 2-(3,4-Dichlorobenzamido)-4-phenoxybenzoic acid] here?
The inhibition at 30 µM was 99%.

How did the inhibition at 30 µM turn out when `O=C(Nc1cc(-c2ccccc2)ccc1C(=O)O)c1ccc(Cl)cc1` [Example 316, 2-(4-Chlorobenzamido)-4-phenylbenzoic acid] was run?
Its inhibition at 30 µM is 96%.

Which inhibition at 30 µM does the source give for `O=C(Nc1cc(-c2cccs2)ccc1C(=O)O)c1ccccc1` [Example 7, 2-(Benzamido)-4-(thiophen-2-yl)benzoic acid] here?
The inhibition at 30 µM was 91%.

How did the inhibition at 30 µM turn out when `O=C(O)c1ccc(Oc2ccccc2)cc1NS(=O)(=O)c1ccccc1` [Example 88, 2-(Benzenesulfonamido)-4-phenoxybenzoic acid] was run?
Its inhibition at 30 µM is 80%.

Which inhibition at 30 µM does the source give for `O=C(Nc1cc(Oc2cccc(Cl)c2)ccc1C(=O)O)c1ccccc1` [Example 551, 2-(benzamido)-4-(3-chlorophenoxy)benzoic acid] here?
Its inhibition at 30 µM is 86%.

For `O=C(/C=C/c1cccc(Cl)c1)Nc1cc(-c2ccccc2)ccc1C(=O)O` [Example 358, 2-((E)-3-(3-Chlorophenyl)acrylamido)-4-phenylbenzoic acid], which inhibition at 30 µM is on record?
Its inhibition at 30 µM is 99%.

For `O=C(Nc1cc(-n2cnc3ccccc32)ccc1C(=O)O)c1ccccc1` [Example 415, 2-(benzamido)-4-(1H-benzimidazol-1-yl)benzoic acid hydrochloride], which inhibition at 30 µM is on record?
The inhibition at 30 µM was 97%.

`O=C(Nc1cc(-c2cccc(Cl)c2)ccc1C(=O)O)c1ccc(O)cc1` [Example 196, 4-(3-chlorophenyl)-2-(4-hydroxybenzamido)benzoic acid] was tested. Which inhibition at 30 µM did it give?
The inhibition at 30 µM was 97%.

`Cc1cccc(-c2ccc(C(=O)O)c(NC(=O)c3ccccc3)c2)c1C` [Example 230, 2-(Benzamido)-4-(2,3-dimethylphenyl)benzoic acid] was tested. Which inhibition at 30 µM did it give?
Its inhibition at 30 µM is 95%.

Which inhibition at 30 µM does the source give for `O=C(CCCc1ccccc1)Nc1cc(Oc2ccccc2)ccc1C(=O)O` [Example 467, 4-phenoxy-2-(4-phenylbutanamido)benzoic acid] here?
Its inhibition at 30 µM is 90%.

`CC(=O)c1cccc(C(=O)Nc2cc(Oc3ccccc3)ccc2C(=O)O)c1` [Example 505, 2-(3-Acetylbenzamido)-4-phenoxybenzoic acid] was tested. Which inhibition at 30 µM did it give?
The inhibition at 30 µM was 82%.

`O=C(Nc1cc(Oc2ccccc2)ccc1C(=O)O)c1cccc(-c2ccccc2)c1` [Example 503, 2-(Biphenyl-3-carboxamido)-4-phenoxybenzoic acid] was tested. Which inhibition at 30 µM did it give?
Its inhibition at 30 µM is 99%.

`O=C(Nc1cc(Oc2ccc(F)cc2)ccc1C(=O)O)c1ccccc1` [Example 560, 2-(Benzamido)-4-(4-fluorophenoxy)benzoic acid] was tested. Which inhibition at 30 µM did it give?
Its inhibition at 30 µM is 85%.

How did the inhibition at 30 µM turn out when `O=C(Nc1cc(-c2c(F)cccc2F)ccc1C(=O)O)c1ccccc1` [Example 217, 2-(Benzamido)-4-(2,6-difluorophenyl)benzoic acid] was run?
Its inhibition at 30 µM is 68%.

How did the inhibition at 30 µM turn out when `COc1ccc(-c2ccc(C(=O)O)c(NC(=O)c3ccccc3)c2)cc1OC` [Example 411, 2-(Benzamido)-4-(3,4-dimethoxyphenyl)benzoic acid] was run?
The inhibition at 30 µM was 81%.

`O=C(Nc1cc(-c2ccccc2)ccc1C(=O)O)c1ccccc1` [Example 4, 2-(benzamido)-4-phenylbenzoic acid] was tested. Which inhibition at 30 µM did it give?
Its inhibition at 30 µM is 80%.

Which inhibition at 30 µM does the source give for `Cc1ccc(C(=O)Nc2cc(CCc3ccccc3)ccc2C(=O)O)cc1C` [Example 261, 2-(3,4-Dimethylbenzamido)-4-phenethylbenzoic acid] here?
Its inhibition at 30 µM is 94%.

With `COc1cccc(/C=C/c2ccc(C(=O)O)c(NC(=O)c3ccc4c(c3)OCO4)c2)c1` [Example 157, 2-(Benzo[1,3]dioxole-5-carboxamido)-4-((E)-2-(3-methoxyphenyl)vinyl)benzoic acid] as the molecule, how does the inhibition at 30 µM read?
The inhibition at 30 µM was 98%.

`O=C(Nc1cc(CCc2ccccc2)ccc1C(=O)O)c1cncc(-n2cccc2)c1` [Example 276, 4-Phenethyl-2-(5-(1H-pyrrol-1-yl)pyridine-3-carboxamido)benzoic acid] was tested. Which inhibition at 30 µM did it give?
Its inhibition at 30 µM is 86%.

For `O=C(Nc1cc(-c2ccc(O)cc2)ccc1C(=O)O)c1ccc(C(F)(F)F)cc1` [Example 176, 4-(4-Hydroxyphenyl)-2-(4-(trifluoromethyl)benzamido)benzoic acid], which inhibition at 30 µM is on record?
Its inhibition at 30 µM is 98%.

With `O=C(Nc1cc(/C=C/c2ccccc2)ccc1C(=O)O)c1ccccc1` [Example 24, 2-(benzamido)-4-((E)-2-phenylvinyl)benzoic acid] as the molecule, how does the inhibition at 30 µM read?
Its inhibition at 30 µM is 92%.

For `O=C(Nc1cc(-c2c(F)cccc2Cl)ccc1C(=O)O)c1ccccc1` [Example 251, 2-(benzamido)-4-(2-chloro-6-fluorophenyl)benzoic acid], which inhibition at 30 µM is on record?
Its inhibition at 30 µM is 83%.

How did the inhibition at 30 µM turn out when `COc1ccc(-c2ccc(C(=O)O)c(NC(=O)c3ccccc3)c2)cc1Cl` [Example 423, 2-(Benzamido)-4-(3-chloro-4-methoxyphenyl)benzoic acid] was run?
Its inhibition at 30 µM is 98%.

How did the inhibition at 30 µM turn out when `O=C(Nc1cc(-c2ccc(F)cc2F)ccc1C(=O)O)c1ccccc1` [Example 19, 2-(benzamido)-4-(2,4-difluorophenyl)benzoic acid] was run?
Its inhibition at 30 µM is 94%.

For `O=C(Nc1cc(OC2CCCCC2)ccc1C(=O)O)c1ccccc1` [Example 105, 2-(benzamido)-4-(cyclohexyloxy)benzoic acid], which inhibition at 30 µM is on record?
The inhibition at 30 µM was 64%.

With `O=C(Nc1cc(-c2cccc(Cl)c2)ccc1C(=O)O)c1ccc2c(c1)OCO2` [Example 163, 2-(Benzo[1,3]dioxole-5-carboxamido)-4-(3-chlorophenyl)benzoic acid] as the molecule, how does the inhibition at 30 µM read?
Its inhibition at 30 µM is 98%.

With `Cc1cccc(Oc2ccc(C(=O)O)c(NC(=O)c3ccccc3)c2)c1C` [Example 541, 2-(Benzamido)-4-(2,3-dimethylphenoxy)benzoic acid] as the molecule, how does the inhibition at 30 µM read?
Its inhibition at 30 µM is 97%.

`O=C(Nc1cc(CCc2ccccc2)ccc1C(=O)O)c1ccc(F)c(F)c1` [Example 433, 2-(3,4-Difluorobenzamido)-4-phenethylbenzoic acid] was tested. Which inhibition at 30 µM did it give?
Its inhibition at 30 µM is 98%.

How did the inhibition at 30 µM turn out when `O=C(Nc1cc(-c2ccccc2)ccc1C(=O)O)c1ccc(O)cc1` [Example 399, 2-(4-Hydroxybenzamido)-4-phenylbenzoic acid] was run?
The inhibition at 30 µM was 79%.

`O=C(Nc1cc(-c2ccccc2)ccc1C(=O)O)c1cc(-c2ccccc2)ncn1` [Example 349, 4-Phenyl-2-(6-phenylpyrimidine-4-carboxamido)benzoic acid] was tested. Which inhibition at 30 µM did it give?
Its inhibition at 30 µM is 95%.

Which inhibition at 30 µM does the source give for `Cc1cccc(C(=O)Nc2cc(-c3ccc(F)cc3F)ccc2C(=O)O)c1C` [Example 189, 4-(2,4-difluorophenyl)-2-(2,3-dimethylbenzamido)benzoic acid] here?
The inhibition at 30 µM was 96%.

How did the inhibition at 30 µM turn out when `O=C(Nc1cc(Oc2ccccc2)ccc1C(=O)O)c1ccc(N2CCOCC2)nc1` [Example 330, 2-(6-Morpholinopyridine-3-carboxamido)-4-phenoxybenzoic acid] was run?
Its inhibition at 30 µM is 68%.

How did the inhibition at 30 µM turn out when `O=C(Nc1cc(Oc2ccccc2)ccc1C(=O)O)c1ccc2c(c1)OCCO2` [Example 83, 2-(2,3-Dihydrobenzo[1,4]dioxin-6-carboxamido)-4-phenoxybenzoic acid] was run?
Its inhibition at 30 µM is 93%.

Which inhibition at 30 µM does the source give for `O=C(Nc1cc(CCc2ccc(OC(F)(F)F)cc2)ccc1C(=O)O)c1ccccc1` [Example 138, 2-(Benzamido)-4-(2-(4-(trifluoromethoxy)phenyl)ethyl)benzoic acid] here?
The inhibition at 30 µM was 95%.

Which inhibition at 30 µM does the source give for `O=C(Nc1cc(-c2ccc(Cl)cc2)ccc1C(=O)O)c1ccccc1` [Example 212, 2-(Benzamido)-4-(4-chlorophenyl)benzoic acid] here?
Its inhibition at 30 µM is 95%.

How did the inhibition at 30 µM turn out when `O=C(Nc1cc(-c2ccccc2)ccc1C(=O)O)c1ccccc1F` [Example 282] was run?
The inhibition at 30 µM was 75%.

Which inhibition at 30 µM does the source give for `Cc1ccc(-c2ccc(C(=O)O)c(NC(=O)c3ccccc3)c2)cc1Cl` [Example 426, 2-(benzamido)-4-(3-chloro-4-methylphenyl)benzoic acid] here?
The inhibition at 30 µM was 98%.

`O=C(Nc1cc(-c2ccc3c(c2)OCO3)ccc1C(=O)O)c1ccccc1` [Example 11, 2-(benzamido)-4-(benzo[1,3]dioxol-5-yl)benzoic acid] was tested. Which inhibition at 30 µM did it give?
The inhibition at 30 µM was 92%.

With `O=C(Nc1cc(/C=C/c2ccc(F)cc2F)ccc1C(=O)O)c1ccccc1` [Example 141, 2-(benzamido)-4-((E)-2-(2,4-difluorophenyl)vinyl)benzoic acid] as the molecule, how does the inhibition at 30 µM read?
The inhibition at 30 µM was 95%.

For `O=C(Nc1cc(CCCCc2ccccc2)ccc1C(=O)O)c1ccccc1` [Example 33, 2-(benzamido)-4-(4-phenylbutyl)benzoic acid], which inhibition at 30 µM is on record?
The inhibition at 30 µM was 97%.

`O=C(O)c1ccc(-c2ccccc2)cc1NC(=O)c1ccc(C(F)(F)F)cc1C(F)(F)F` [Example 318, 4-Phenyl-2-(2,4-bis(trifluoromethyl)benzamido)benzoic acid] was tested. Which inhibition at 30 µM did it give?
Its inhibition at 30 µM is 95%.

Same assay, conditions: SW1353 cells stimulated with IL-1β 10 ng/mL, MMP-13 in culture supernatant by ELISA 16 hours after stimulation

Which “Inhibition rate (%) at 30 μmol/L” value does the source give for `Cc1ccc(-c2ccc(C(=O)O)c(NC(=O)c3ccccc3)c2)cc1` [Example 240] here?
Its value is 94%.

Source: US7999132B2, “Anthranilic acid derivative or salt thereof” (Toyama Chemical Co., Ltd., priority 2004, dated 2011)
